# Results from patent publication US10533006B2, “Nitrogen-containing heterocycle and carbocycle derivatives having TrkA inhibitory activity” (Shionogi & Co., Ltd., priority 2016, dated 2020).
# Biological target: T1, human TrkA (Homo sapiens, UniProt P04629)
# T1 construct: purchased Lifetechnologies PV3144
# Experiment: Human TrkA inhibition assay
# Assay type: biochemical
# Conditions: human TrkA phosphorylation inhibition, ATP 500 μmol/L; read-out: IC50_nM
# Method: Seven point five L per well of human TrkA (PV3144, Lifetechnologies, final concentration: 1 nmol/L) suspended in the assay buffer (100 mmol/L 4-(2-hydroxyethyl)-1-piperazineethanesulfonic acid (HEPES), 10 mmol/L magnesium chloride, 0.003 vol % Brij-35, 0.004 vol % Tween20 and 1 mmol/L dithiothreitol (DTT)) was applied in a 384 well plate and the plate was pre-incubated for 15 min at room temperature with 0.4 μL of each compound (final concentration: 200 μmol/L-0.1 nM) dissolved in DMSO. Then, fluorescent substrate (FL-peptide 27, 760424, PerkinElmer, final concentration: 1.5 μmol/L) and ATP (final concentration 500 μmol/L) dissolved in the assay buffer was added in each well. After the incubation of 120 min at 37° C., fifteen μL of termination buffer (100 mmol/L HEPES, 40 mmol/L ethylenediaminetetraacetic acid (EDTA), 10 mmol/L magnesium chloride, 0.003 vol % Brij-35, 0.004 vol % Tween20, 1 mmol/L DTT and 0.16 vol % Coating Reagent 3) was added in each well to stop the enzyme reaction. Fluorescent intensities (FI) of phosphorylated and non-phosphorylated fluorescent substrates were measured by LabChip EZReader II (Caliper LifeSciences, Inc.), and conversion ratio (CR) was calculated by the following formula-1. The CR in the well applied with DMSO alone was used as a negative control and the CR in the well without applying TrkA was used as a positive control. The inhibitory effect of each compound on TrkA phosphorylation was calculated by the following formula-2. CR (%)=(FI of phosphorylated substrate/(FI of phosphorylated substrate+FI of non-phosphorylated substrate))×100 (Formula-1) Phosphorylation inhibition (%)=(1−(CR with compound treatment−CR of positive control)/(CR of negative control−CR of positive control))×100 (Formula-2)
# IC50 values (nmol/L) were determined by the logistic regression using the inhibition data in 10 points of 3-fold dilution series at a compound concentration range of 2 μmol/L to 0.1 nmol/L, or 15 points of 3-fold dilution series at the range of 200 μmol/L to 0.04 nmol/L.
# T1 sequence (P04629 33-796): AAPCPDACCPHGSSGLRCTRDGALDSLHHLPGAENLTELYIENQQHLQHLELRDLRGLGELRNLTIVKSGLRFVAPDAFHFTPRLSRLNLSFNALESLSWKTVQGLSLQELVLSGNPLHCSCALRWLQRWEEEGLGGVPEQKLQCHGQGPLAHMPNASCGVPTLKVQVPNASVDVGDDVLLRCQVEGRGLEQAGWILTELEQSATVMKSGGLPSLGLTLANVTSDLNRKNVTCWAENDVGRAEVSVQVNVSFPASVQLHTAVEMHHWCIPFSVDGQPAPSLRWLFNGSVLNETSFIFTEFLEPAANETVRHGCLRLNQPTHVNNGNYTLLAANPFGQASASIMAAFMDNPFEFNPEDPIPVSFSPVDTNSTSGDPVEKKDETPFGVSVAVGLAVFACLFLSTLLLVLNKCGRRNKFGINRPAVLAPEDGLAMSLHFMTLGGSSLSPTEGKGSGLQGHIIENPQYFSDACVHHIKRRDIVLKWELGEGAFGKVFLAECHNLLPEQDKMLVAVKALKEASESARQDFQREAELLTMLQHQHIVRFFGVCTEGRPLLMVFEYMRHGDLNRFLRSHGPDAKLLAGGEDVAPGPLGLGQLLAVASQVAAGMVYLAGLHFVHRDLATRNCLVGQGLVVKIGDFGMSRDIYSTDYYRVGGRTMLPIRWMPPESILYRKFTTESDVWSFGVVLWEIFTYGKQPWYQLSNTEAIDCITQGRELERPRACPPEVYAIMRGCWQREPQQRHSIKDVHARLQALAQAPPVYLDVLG
row,IC50 [nM],Structure (SMILES)
1,< 100,COCCN1C[C@@H](NC(=O)Nc2c(C)c(-c3cnc(OC)c(C(=O)NC[C@@H](C)O)c3)nn2-c2ccccc2)[C@H](c2ccccc2)C1 [Compound I-82]
2,< 100,COCCN1C[C@@H](NC(=O)Nc2c(C)c(-c3ccc(C(=O)NCc4ccccc4)nc3)nn2-c2ccccc2)[C@H](c2ccccc2)C1 (racemic) [Compound I-27]
3,< 100,CNC(=O)c1ccc(-c2nn(-c3ccccc3)c(NC(=O)N[C@@H]3CN(CCOC)C[C@H]3c3ccccc3)c2C)cn1 (racemic) [Compound I-35]
4,< 100,CCN1CCC(NC(=O)c2ccc(-c3nn(-c4ccccc4)c(NC(=O)N[C@@H]4C[C@@H](CCOC)N(C)[C@H]4c4ccc(F)c(F)c4)c3C)cc2)CC1 [Compound I-25]
5,100 to 1000,COCCN1C[C@@H](NC(=O)Nc2c(C)c(-c3cnn(C)c3)nn2-c2ccccc2)[C@H](c2cc(Cl)nc(Cl)c2)C1 (racemic) [Compound I-4]
6,< 100,COCCN1C[C@@H](NC(=O)Nc2c(C)c(-c3cc(C(=O)N[C@H]4CCOC4)c(=O)n(C)c3)nn2-c2ccccc2)[C@H](c2ccccc2)C1 (racemic) [Compound I-111]
7,< 100,COCCN1C[C@@H](NC(=O)Nc2c(C)c(-c3cc(C(=O)NC4CC(F)(F)C4)c(=O)n(C)c3)nn2-c2ccccc2)[C@H](c2ccccc2)C1 (racemic) [Compound I-113]
8,< 100,COCCN1C[C@@H](NC(=O)Nc2c(C)c(-c3cnc(OC)c(C(N)=O)c3)nn2-c2ccccc2)[C@H](c2ccccc2)C1 (racemic) [Compound I-161]
9,< 100,COCC[C@@H]1C[C@@H](NC(=O)Nc2c(C)c(-c3ccc(OC)nc3)nn2-c2ccccc2)[C@H](c2ccnc(F)c2)N1C [Compound I-175]
10,< 100,COCCN1C[C@@H](NC(=O)Nc2c(C)c(-c3ccnc(C(=O)NC4COC4)c3)nn2-c2ccccc2)[C@H](c2ccccc2)C1 (racemic) [Compound I-69]
11,< 100,COCCN1C[C@@H](NC(=O)Nc2c(C)c(-c3cnn(C)c3)nn2-c2ccccc2)[C@H](c2ccnc(Cl)c2)C1 (racemic) [Compound I-1]
12,< 100,COCCN1C[C@@H](NC(=O)Nc2c(C)c(-c3ccnc(C(=O)NO)c3)nn2-c2ccccc2)[C@H](c2ccc(F)c(F)c2)C1 [Compound I-155]
13,< 100,COCCN1C[C@@H](NC(=O)Nc2c(C)c(-c3cc(C(=O)N[C@@H]4CCOC4)c(=O)n(C)c3)nn2-c2ccccc2)[C@H](c2ccccc2)C1 (racemic) [Compound I-112]
14,< 100,CNC(=O)c1cc(-c2nn(-c3ccccc3)c(NC(=O)N[C@@H]3C[C@@H](CCOC)N(C)[C@H]3c3ccnc(F)c3)c2C)cnc1OC [Compound I-176]
15,< 100,CNC(=O)c1cc(-c2nn(-c3ccccc3)c(NC(=O)N[C@@H]3CN(CCOC)C[C@H]3c3ccccc3)c2C)cnc1OCF (racemic) [Compound I-126]
16,< 100,CNS(=O)(=O)c1cc(-c2nn(-c3ccccc3)c(NC(=O)N[C@@H]3C[C@@H](CCOC)C[C@H]3c3ccccc3)c2C)cn(C)c1=O [Compound I-148]
17,< 100,COCCN1C[C@@H](NC(=O)Nc2c(C)c(-c3cnc(OC)c(C(=O)N[C@@H]4CCCOC4)c3)nn2-c2ccccc2)[C@H](c2ccccc2)C1 [Compound I-78]
18,< 100,COCCN1C[C@@H](NC(=O)Nc2c(C)c(-c3cc(C(=O)NC4CCCCC4)c(=O)n(C)c3)nn2-c2ccccc2)[C@H](c2ccccc2)C1 (racemic) [Compound I-108]
19,< 100,CCNC(=O)c1cc(-c2nn(-c3ccccc3)c(NC(=O)N[C@@H]3CN(CCOC)C[C@H]3c3ccccc3)c2C)cn(C)c1=O (racemic) [Compound I-54]
20,< 100,COCCN1C[C@@H](NC(=O)Nc2c(C)c(-c3ccnc(C(=O)NCCO)c3)nn2-c2ccccc2)[C@H](c2ccccc2)C1 (racemic) [Compound I-49]
21,< 100,COCC[C@@H]1C[C@@H](NC(=O)Nc2c(C)c(-c3cc(C(=O)O)c(=O)n(C)c3)nn2-c2ccccc2)[C@H](c2ccccc2)C1 [Compound I-149]
22,< 100,CNC(=O)c1cc(-c2nn(-c3ccccc3)c(NC(=O)N[C@@H]3CN(CCOC)C[C@H]3c3ccccc3)c2C)cnc1OCC(F)F (racemic) [Compound I-125]

row,IC50 [nM],Structure (SMILES)
1,< 100,COCCN1C[C@@H](NC(=O)Nc2c(C)c(-c3cnc(OC)c(C(=O)NC4CS(=O)(=O)C4)c3)nn2-c2ccccc2)[C@H](c2ccccc2)C1 (racemic) [Compound I-101]
2,< 100,COCCN1C[C@@H](NC(=O)Nc2c(C)c(-c3ccnc(C(=O)NC[C@H](C)O)c3)nn2-c2ccccc2)[C@H](c2ccccc2)C1 [Compound I-88]
3,< 100,COCCN1C[C@@H](NC(=O)Nc2c(C)c(-c3ccc(C(=O)NO)nc3)nn2-c2ccccc2)[C@H](c2ccccc2)C1 (racemic) [Compound I-150]
4,< 100,COCCN1C[C@@H](NC(=O)Nc2c(C)c(-c3cnc(C)nc3)nn2-c2ccccc2)[C@H](c2cnc(F)c(F)c2)C1 (racemic) [Compound I-60]
5,< 100,COCCN1C[C@@H](NC(=O)Nc2c(C)c(-c3cnc4[nH]c(=O)oc4c3)nn2-c2ccccc2)[C@H](c2ccccc2)C1 (racemic) [Compound I-107]
6,< 100,CNC(=O)c1cc(-c2nn(-c3ccccc3)c(NC(=O)N[C@@H]3CN(CCOC)C[C@H]3c3ccccc3)c2C)cn(C)c1=O (racemic) [Compound I-52]
7,< 100,COCC[C@@H]1C[C@@H](NC(=O)Nc2c(C)c(-c3ccc4c(cnn4C)c3)nn2-c2ccccc2)[C@H](c2ccccc2)C1 [Compound I-21]
8,< 100,COCCN1C[C@@H](NC(=O)Nc2c(C)c(-c3ccnc(C(=O)NC4CCCCC4)c3)nn2-c2ccccc2)[C@H](c2ccccc2)C1 (racemic) [Compound I-71]
9,< 100,COCCN1C[C@@H](NC(=O)Nc2c(C)c(-c3cnc4c(c3)c(C)nn4C)nn2-c2ccccc2)[C@H](c2ccccc2)C1 (racemic) [Compound I-89]
10,< 100,COCC[C@@H]1C[C@@H](NC(=O)Nc2c(C)c(-c3cnc4c(c3)nnn4C)nn2-c2ccccc2)[C@H](c2ccnc(F)c2)N1C [Compound I-171]
11,< 100,COCCN1C[C@@H](NC(=O)Nc2c(C)c(-c3cnc4cccnc4c3)nn2-c2ccccc2)[C@H](c2ccccc2)C1 (racemic) [Compound I-137]
12,< 100,COCCN1C[C@@H](NC(=O)Nc2c(C)c(-c3cnc4c(c3)c(C(=O)OC)nn4C)nn2-c2ccccc2)[C@H](c2ccccc2)C1 (racemic) [Compound I-64]
13,< 100,COCCN1C[C@@H](NC(=O)Nc2c(C)c(-c3ccnc(C(=O)NC4CC(F)(F)C4)c3)nn2-c2ccccc2)[C@H](c2ccccc2)C1 (racemic) [Compound I-70]
14,< 100,CCN1CCC(NC(=O)c2ccc(-c3nn(-c4ccccc4)c(NC(=O)N[C@@H]4C[C@@H](CCOC)N[C@H]4c4ccc(F)c(F)c4)c3C)cc2)CC1 [Compound I-15]
15,< 100,COCCN1C[C@@H](NC(=O)Nc2c(C)c(-c3cnc(OC)c(C(=O)NS(C)(=O)=O)c3)nn2-c2ccccc2)[C@H](c2ccccc2)C1 (racemic) [Compound I-147]
16,< 100,COCC[C@@H]1C[C@@H](NC(=O)Nc2c(C)c(-c3ccc4c(cnn4C)c3)nn2-c2ccccc2)[C@H](c2ccc(F)c(F)c2)C1 [Compound I-13]
17,< 100,COCCN1C[C@@H](NC(=O)Nc2c(C)c(-c3cnc(OC)c(C(=O)NC4CCC(F)(F)CC4)c3)nn2-c2ccccc2)[C@H](c2ccccc2)C1 (racemic) [Compound I-83]
18,< 100,COCCN1C[C@@H](NC(=O)Nc2c(C)c(-c3cnc(OC)c(C(=O)NO)c3)nn2-c2ccccc2)[C@H](c2ccccc2)C1 (racemic) [Compound I-138]
19,< 100,COCCN1C[C@@H](NC(=O)Nc2c(C)c(-c3cnn(C)c3)nn2-c2ccccc2)[C@H](c2ccnc(F)c2)C1 (racemic) [Compound I-2]
20,< 100,COCC[C@@H]1C[C@@H](NC(=O)Nc2c(C)c(-c3ccc(=O)[nH]c3)nn2-c2ccccc2)[C@H](c2ccccc2)C1 [Compound I-23]
21,< 100,COCC[C@@H]1C[C@@H](NC(=O)Nc2c(C)c(-c3cnc(N4CC(OC)C4)nc3)nn2-c2ccccc2)[C@H](c2ccnc(F)c2)N1C [Compound I-180]

# Same assay, conditions: human TrkA phosphorylation inhibition, ATP 500 μmol/L; read-out: IC50 value
row,IC50 [nM],Structure (SMILES)
1,1,COCCN1C[C@@H](NC(=O)Nc2c(C)c(-c3cnc(OC)c(C(=O)NC4CCOCC4)c3)nn2-c2ccccc2)[C@H](c2ccccc2)C1 (racemic) [Compound I-57]
2,0.66,COCC[C@@H]1C[C@@H](NC(=O)Nc2c(C)c(-c3cnc4c(cnn4C)c3)nn2-c2ccccc2)[C@H](c2ccccc2)C1 [Compound I-102]
3,28,COCCN1C[C@@H](NC(=O)Nc2cc(-c3cnc4c(cnn4C)c3)nn2C)[C@H](c2ccc(F)c(F)c2)C1 [Compound I-167]
